Results taken from patent US8809341B2, “2,4-pyrimidinediamine compounds and uses as anti-proliferative agents” (Rigel Pharmaceuticals, Inc., priority 2003, dated 2014).
Blank lines part the entries; values can stand above or below the compound they belong to.

Columns and labels:
H1299 cells = assay: in vitro antiproliferation assay, H1299 (lung); format: cell-based
Procedure: (§1) The IC50 values of various compounds against a various different tumor cell lines were determined using standard in vitro antiproliferation assays. The tumor cell lines tested were as follows: A549 (lung); H1299 (lung), ACHN (kidney/p53 wt), CAKI (renal cell carcinoma), NCI-H460 (lung); HCT116 (colon/p53w0; HELA (cervix/p53 wt), HUH7 (liver/p53 wt), HUVEC (primary endothelial), LNCAP (prostate), HT-29 (colon); MCF-7 (breast); MCF-7 (breast/ER positive), MDA MB435S (breast); MDA MB231 (breast/ER negative), DU145 (prostate); BxPC-3 (pancreatic); SKOV-3 (ovarian); HepG2 (hepatic), NDHF primary normal human dermal fibroblast), SKMEL28 (breast/p53mut), SKMEL5 (breast/p53 wt), U20S (bone) and PC3 (prostate). […] A blank indicates the specified compound was not tested against the specified cell line.

A549 cells = assay: in vitro antiproliferation assay, A549 (lung); format: cell-based
Procedure: as §1

[1] = H1299 (lung) cells, antiproliferation
[2] = A549 (lung) cells, antiproliferation
[3] = IC50 class against H1299 (lung) tumor cells
[4] = IC50 class against A549 (lung) tumor cells
[5] = H1299 (lung) cells, in vitro antiproliferation
[6] = A549 (lung) cells, in vitro antiproliferation
[7] = Homo sapiens, NCI-H1299, IC50 class against H1299 (lung) tumor cells
[8] = Homo sapiens, IC50 class against A549 (lung) tumor cells
[9] = Table 5, in vitro antiproliferation, H1299 (lung) cells
[10] = Table 5, in vitro antiproliferation, A549 (lung) cells
[11] = Table 7, in vitro antiproliferation, H1299 (lung) cells
[12] = Table 7, in vitro antiproliferation, A549 (lung) cells

- IC50 (H1299 cells; [1]): ≤ 20 µM
- IC50 (A549 cells; [2]): ≤ 20 µM
SMILES: COc1ccc(Nc2ncc(F)c(Nc3cccc(O)c3)n2)cc1OC [compound 969]

- IC50 (H1299 cells; [7]): ≤ 20 µM
- IC50 (A549 cells; [8]): ≤ 20 µM
SMILES: CN1CCN(c2ccc(Nc3ncc(F)c(Nc4cc(C5CC5)[nH]n4)n3)cc2C(F)(F)F)CC1 [compound 214]

- IC50 (H1299 cells; [5]): ≤ 20 µM
- IC50 (A549 cells; [6]): ≤ 20 µM
SMILES: COc1cc(Nc2ncc(F)c(Nc3ccc(N4CCOCC4)c(Cl)c3)n2)cc(C(F)(F)F)c1 [compound 806]

- IC50 (H1299 cells; [1]): ≤ 20 µM
- IC50 (A549 cells; [2]): ≤ 20 µM
SMILES: COc1ccc(Nc2nc(Nc3ccc(C(N)=O)cc3)ncc2F)cc1Cl [compound 1022]

- IC50 (H1299 cells; [7]): > 20 µM
- IC50 (A549 cells; [8]): > 20 µM
SMILES: CC(=O)N1CCN(c2ccc(Nc3ncc(F)c(Nc4cccc(Nc5ncc[nH]5)c4)n3)cc2)CC1 [compound 1058]

- IC50 (H1299 cells; [9]): ≤ 20 µM
- IC50 (A549 cells; [10]): ≤ 20 µM
SMILES: CNC(=O)c1ccc(Nc2ncc(F)c(Nc3ccc4c(c3)OCCO4)n2)cc1Cl [compound 554]

- IC50 (H1299 cells; [11]): > 20 µM
- IC50 (A549 cells; [12]): > 20 µM
SMILES: CNC(=O)c1cc2cccc(Nc3ncc(F)c(Nc4ccc5c(c4)OC(F)(F)O5)n3)c2[nH]1 [compound 670]

- IC50 (H1299 cells; H1299 (lung) cells): ≤ 20 µM
- IC50 (A549 cells; A549 (lung) cells): ≤ 20 µM
SMILES: COc1cccc(Nc2ncc(F)c(Nc3ccc4c(c3)NC(=O)CO4)n2)c1C [compound 1062]

- IC50 (H1299 cells; [7]): ≤ 20 µM
- IC50 (A549 cells; [8]): ≤ 20 µM
SMILES: COC(=O)N1CCN(c2ccc(Nc3ncc(F)c(Nc4cc(C(C)(C)C)[nH]n4)n3)cc2)CC1 [compound 203]

- IC50 (H1299 cells; [3]): ≤ 20 µM
- IC50 (A549 cells; [4]): ≤ 20 µM
SMILES: CCOC(=O)N1CCN(c2cccc(Nc3ncc(F)c(Nc4ccc5c(n4)NCCO5)n3)c2)CC1 [compound 607]

Second part, the compound before the results:

SMILES: Cc1cc(Nc2ncc(F)c(NC3CCCC3)n2)cnc1N1CCN(C)CC1 [compound 172]
- IC50 (H1299 cells; [3]): ≤ 20 µM
- IC50 (A549 cells; [4]): ≤ 20 µM

SMILES: COc1ccc(Nc2nc(Nc3cc(C)c(C)c(C)c3)ncc2F)cc1Cl [compound 811]
- IC50 (H1299 cells; [5]): > 20 µM
- IC50 (A549 cells; [6]): ≤ 20 µM

SMILES: Cc1cc(C)cc(Nc2nc(Nc3cc(Cl)cc(Cl)c3)ncc2F)c1 [compound 898]
- IC50 (H1299 cells; [1]): > 20 µM
- IC50 (A549 cells; [2]): > 20 µM

SMILES: NC(=O)c1ccc(Nc2ncc(F)c(Nc3ccc(C(N)=O)cc3)n2)cc1 [compound 1029]
- IC50 (H1299 cells; [1]): > 20 µM
- IC50 (A549 cells; [2]): > 20 µM

SMILES: Fc1cnc(Nc2cc(Cl)cc(Cl)c2)nc1Nc1ccc2c(c1)OC(F)(F)O2 [compound 564]
- IC50 (H1299 cells; [9]): ≤ 20 µM
- IC50 (A549 cells; [10]): ≤ 20 µM

SMILES: COc1cc(Nc2ncc(F)c(Nc3ccc(OC)c(Cl)c3)n2)cc(C(F)(F)F)c1 [compound 810]
- IC50 (H1299 cells; [5]): > 20 µM
- IC50 (A549 cells; [6]): ≤ 20 µM

SMILES: Fc1cnc(Nc2cc(-c3ncco3)cc(C(F)(F)F)c2)nc1Nc1ccc2c(c1)OCCO2 [compound 559]
- IC50 (H1299 cells; [9]): ≤ 20 µM
- IC50 (A549 cells; [10]): ≤ 20 µM

SMILES: Cc1cc(C)cc(Nc2ncc(F)c(N(C)c3ccc4c(c3)OCCO4)n2)c1 [compound 547]
- IC50 (H1299 cells; [9]): ≤ 20 µM
- IC50 (A549 cells; [10]): ≤ 20 µM

SMILES: CCCCn1ncc2ccc(Nc3ncc(F)c(Nc4ccc(Cl)c(Cl)c4)n3)cc21 [compound 1087]
- IC50 (H1299 cells; H1299 (lung) cells): ≤ 20 µM
- IC50 (A549 cells; A549 (lung) cells): ≤ 20 µM

SMILES: COc1cc(Nc2ncc(F)c(N(C)c3cc(OC)cc(OC)c3)n2)cc(OC)c1 [compound 852]
- IC50 (H1299 cells; [5]): ≤ 20 µM
- IC50 (A549 cells; [6]): ≤ 20 µM

SMILES: CC(C)(CC1CCC1)n1ncc2cc(Nc3ncc(F)c(Nc4ccc(Cl)c(Cl)c4)n3)ccc21 [compound 1099]
- IC50 (H1299 cells; H1299 (lung) cells): ≤ 20 µM
- IC50 (A549 cells; A549 (lung) cells): ≤ 20 µM

SMILES: OCc1cc(CO)cc(Nc2ncc(F)c(Nc3ccc(Cl)c(Cl)c3)n2)c1 [compound 844]
- IC50 (H1299 cells; [5]): ≤ 20 µM
- IC50 (A549 cells; [6]): ≤ 20 µM

SMILES: COC(=O)c1cc2cc(Nc3ncc(F)c(N(C)c4cc(C)c(Cl)c(C)c4)n3)ccc2o1 [compound 672]
- IC50 (H1299 cells; [11]): > 20 µM
- IC50 (A549 cells; [12]): > 20 µM

SMILES: COc1cc(Nc2nc(Nc3ccc4c(cnn4C(C)(C)CC4CC4)c3)ncc2F)ccc1F [compound 1109]
- IC50 (H1299 cells; H1299 (lung) cells): ≤ 20 µM
- IC50 (A549 cells; A549 (lung) cells): ≤ 20 µM

SMILES: CC(C)(CC1CC1)n1ncc2cc(Nc3ncc(F)c(Nc4ccc(Cl)c(Cl)c4)n3)ccc21 [compound 1107]
- IC50 (H1299 cells; H1299 (lung) cells): > 20 µM
- IC50 (A549 cells; A549 (lung) cells): > 20 µM

SMILES: COc1cc(Nc2nc(Nc3ccc4oc(C(=O)O)cc4c3)ncc2F)cc(OC)c1 [compound 657]
- IC50 (H1299 cells; [11]): > 20 µM
- IC50 (A549 cells; [12]): > 20 µM
